Measured values as given in patent US7875631B2, “Tetrahydroisoquinoline-and tetrahydrobenzazepine derivatives as igf-1 r inhibitors” (Analytecon S.A., priority 2004, dated 2011).

Experiments:
[1] = system: SK-Mel-28 cells; assay: Interaction with cell division, mitotic index; assay type: cell-based, human; conditions: four hours (vehicle 1.7)
Experimental: The mitotic index was determined after incubation of SK-Mel-28 cells with vehicle, the compound (I) of example 3 and nocodazole for four hours [essentially as described by C. L. Rieder et al.: Current Biology 10(2000) 1067-1070].

[2] = system: SK-MEL 28 cells; assay: Cell death by apoptosis, Annexin V staining, SK-MEL 28; assay type: cell-based, human; conditions: 500 ng/ml
Experimental: (§1) Jurkat and SK-MEL 28 cells were incubated with the compound (I) from example 3 for 6, 24 and 48 hours, after which the percentage of apoptotic cells were determined by Annexin V staining.
(§2) The numbers depicted in the Table represent the percentage of Annexin-V positive cells.

[3] = system: Jurkat cells; assay: Cell death by apoptosis, Annexin V staining, Jurkat; assay type: cell-based, human; conditions: for percentage of Annexin-V positive cells: Jurkat, 500 ng/ml
Experimental: as §1, §2

[4] = target: T1, insulin receptor (IR) (Homo sapiens, UniProt P06213); assay: Inhibition of phosphorylation of insulin receptor (IR) in SK-MEL-28; assay type: cell-based; conditions: 1 microgram/ml, 2 hours
T1 construct: endogenous in cells; host or cells: SK-MEL-28
T1 sequence (P06213 28-1382): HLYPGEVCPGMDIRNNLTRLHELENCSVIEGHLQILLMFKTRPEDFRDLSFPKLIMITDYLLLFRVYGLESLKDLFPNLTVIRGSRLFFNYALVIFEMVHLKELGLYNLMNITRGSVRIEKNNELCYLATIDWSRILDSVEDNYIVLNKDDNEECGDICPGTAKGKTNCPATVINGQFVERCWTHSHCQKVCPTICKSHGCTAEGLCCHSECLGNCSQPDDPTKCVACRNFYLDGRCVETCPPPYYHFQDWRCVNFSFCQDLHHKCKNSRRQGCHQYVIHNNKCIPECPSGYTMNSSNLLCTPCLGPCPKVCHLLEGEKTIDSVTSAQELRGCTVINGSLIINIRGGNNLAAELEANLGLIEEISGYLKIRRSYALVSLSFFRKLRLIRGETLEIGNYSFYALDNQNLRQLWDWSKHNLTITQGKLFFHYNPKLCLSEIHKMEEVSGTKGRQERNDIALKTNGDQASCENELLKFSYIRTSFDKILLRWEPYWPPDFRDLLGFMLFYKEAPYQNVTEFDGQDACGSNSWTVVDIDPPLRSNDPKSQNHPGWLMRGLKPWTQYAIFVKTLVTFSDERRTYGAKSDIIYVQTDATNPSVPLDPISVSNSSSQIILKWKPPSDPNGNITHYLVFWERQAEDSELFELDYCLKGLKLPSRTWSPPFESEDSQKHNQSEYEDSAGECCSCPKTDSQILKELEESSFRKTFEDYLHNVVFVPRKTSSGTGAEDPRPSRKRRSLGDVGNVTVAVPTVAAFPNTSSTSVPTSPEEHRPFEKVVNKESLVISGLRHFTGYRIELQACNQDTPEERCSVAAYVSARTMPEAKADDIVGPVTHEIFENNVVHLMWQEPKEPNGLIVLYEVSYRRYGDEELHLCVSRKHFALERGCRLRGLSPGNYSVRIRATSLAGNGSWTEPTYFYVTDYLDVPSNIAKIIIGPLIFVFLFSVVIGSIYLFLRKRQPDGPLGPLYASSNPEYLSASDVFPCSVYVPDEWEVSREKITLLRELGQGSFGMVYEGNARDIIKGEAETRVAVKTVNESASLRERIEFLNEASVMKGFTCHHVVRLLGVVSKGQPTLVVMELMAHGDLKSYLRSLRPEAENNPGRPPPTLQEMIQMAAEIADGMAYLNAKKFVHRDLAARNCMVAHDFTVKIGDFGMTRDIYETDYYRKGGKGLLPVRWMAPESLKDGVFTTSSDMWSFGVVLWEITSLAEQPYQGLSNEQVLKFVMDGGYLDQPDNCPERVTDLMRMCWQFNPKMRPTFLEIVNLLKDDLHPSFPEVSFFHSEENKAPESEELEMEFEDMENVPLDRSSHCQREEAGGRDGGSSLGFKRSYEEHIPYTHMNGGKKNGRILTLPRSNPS
Experimental: SK-MEL-28 cells (density 60000/cm^2) were grown in 100 mm diameter dishes containing 10 ml RPMI 1640 supplemented with 10% fetal bovine serum (FBS) for 24 hours. After 24 hours fresh medium supplemented with 10% FBS was added together with or without 1 microgram/ml of compound 33. The dishes were incubated at 37° C. for 2 hours, after which the cells were lyzed and subjected to immunoprecipitation using 2 microliter of an anti-IR monoclonal antibody (18-44, ABCAM) and 20 microliter of agarose-conjugated protein G. Antibody-antigen complexes were allowed to form for 4 hours at 4° C. and after that collected by centrifugation at 4° C. for 1 minute at 5000 rpm. Immunoprecipitated complexes were separated by electrophoresis on an 8% polyacrylamide gel and electroblotted onto a nitrocellulose membrane (Amersham Bioscience). The efficiency of the immunoprecipitation was determined by using a polyclonal antibody against the beta-subunit of the insulin receptor (C-19; Santa Cruz Biotech.). Detection of the tyrosine phosphorylation of the insulin receptor was performed by incubation of the nitrocellulose membranes with an anti-phosphotyrosine antibody (4G10, Upstate Biotechnology Ltd., UK). […]

[5] = target: T2, IGF-1R (Homo sapiens, UniProt P08069); assay: Inhibition of phosphorylation of IGF-1R in SK-MEL-28; assay type: cell-based; conditions: compound 1000 ng/ml for 2 hours, IGF-1 20 ng/ml for 5 minutes; IGF-1 alone = 100
T2 construct: endogenous in cells; host or cells: SK-MEL-28
T2 sequence (P08069 31-1367): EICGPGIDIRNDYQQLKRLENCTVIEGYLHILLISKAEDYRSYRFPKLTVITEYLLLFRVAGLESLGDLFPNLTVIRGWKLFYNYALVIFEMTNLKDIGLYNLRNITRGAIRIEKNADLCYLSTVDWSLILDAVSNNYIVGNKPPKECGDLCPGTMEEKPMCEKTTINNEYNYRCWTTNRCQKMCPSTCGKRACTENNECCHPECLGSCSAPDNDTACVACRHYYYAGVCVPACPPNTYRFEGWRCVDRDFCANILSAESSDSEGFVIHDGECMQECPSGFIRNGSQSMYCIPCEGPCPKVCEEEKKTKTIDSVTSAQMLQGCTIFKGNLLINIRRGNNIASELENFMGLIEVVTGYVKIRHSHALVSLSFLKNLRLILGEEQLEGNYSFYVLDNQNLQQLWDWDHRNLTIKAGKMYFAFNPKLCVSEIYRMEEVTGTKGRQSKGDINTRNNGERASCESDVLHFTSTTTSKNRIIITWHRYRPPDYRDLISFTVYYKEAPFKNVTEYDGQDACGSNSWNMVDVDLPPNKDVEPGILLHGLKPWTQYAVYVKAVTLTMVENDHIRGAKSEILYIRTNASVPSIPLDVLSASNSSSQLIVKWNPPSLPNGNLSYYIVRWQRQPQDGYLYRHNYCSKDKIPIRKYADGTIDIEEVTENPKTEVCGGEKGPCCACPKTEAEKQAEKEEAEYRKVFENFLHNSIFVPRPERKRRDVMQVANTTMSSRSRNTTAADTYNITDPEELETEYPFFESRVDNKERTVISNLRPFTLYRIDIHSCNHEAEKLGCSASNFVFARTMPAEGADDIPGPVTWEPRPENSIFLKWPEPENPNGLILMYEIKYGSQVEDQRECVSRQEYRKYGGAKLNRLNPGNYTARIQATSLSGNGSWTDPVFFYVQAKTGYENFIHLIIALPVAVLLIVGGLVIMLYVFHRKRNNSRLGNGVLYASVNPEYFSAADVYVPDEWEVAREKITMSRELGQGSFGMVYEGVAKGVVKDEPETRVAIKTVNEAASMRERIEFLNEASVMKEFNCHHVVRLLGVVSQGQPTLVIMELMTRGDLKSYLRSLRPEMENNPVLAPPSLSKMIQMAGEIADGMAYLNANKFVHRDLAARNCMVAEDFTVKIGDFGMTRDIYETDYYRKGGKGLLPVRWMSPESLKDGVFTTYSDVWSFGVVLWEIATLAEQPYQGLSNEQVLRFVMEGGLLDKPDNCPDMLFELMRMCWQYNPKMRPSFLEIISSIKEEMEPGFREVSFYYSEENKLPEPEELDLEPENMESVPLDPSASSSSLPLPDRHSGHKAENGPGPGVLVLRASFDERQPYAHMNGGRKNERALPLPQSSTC
Experimental: IGF-1R: Assay without treatment with compounds (I). (Essentially as described by M. Rubini et al. Exp. Cell Res. 230(1997) 284-292).
SK-MEL-28 cells (density 60000/cm^2; 100 mm diameter dish containing 10 ml RPMI 1640) were starved for 24 hours at 37° C. and thereafter treated for 5 minutes at 37° C. with IGF-1 (200 ng, Sigma). Untreated cells served as control. The cells were lyzed and subjected to immunoprecipitation using a specific antibody against IGF-1R (alfa-IR3, Oncogene Science). Immunoprecipitates were separated by polyacrylamide gel electrophoresis and transferred to nitrocellulose membranes (Amersham Bioscience). The immunoprecipitated IGF-1 receptor was located on the nitrocellulose membrane using an antibody against the alfa-subunit of the IGF-1R (N-20:sc-712, Santa Cruz Biotech.). Detection of the tyrosine phosphorylation of the IGF-1 receptor was performed by incubation of the nitrocellulose membranes with an anti-phosphotyrosine antibody (4G10, Upstate Biotechnology Ltd., UK). To reveal the anti-IGF-1R rabbit polyclonal antibody and the anti-phosphotyrosine mouse monoclonal antibody, the membranes were incubated with anti-rabbit IgG and anti-mouse IgG antibodies coupled to HRP, respectively, and visualized by the use of an enhanced chemiluminescence (ECL) detection system (Pierce). […]

## COc1ccc2c(c1)CCN(C(C)=O)C2c1cc(OC)c(OC)c(OC)c1 (racemic) [Example 3, 1-(3,4,5-trimethoxyphenyl)-2-acetyl-6-methoxy-1,2,3,4-tetrahydroisoquinoline]
[1]; 300 ng/ml
  mitotic index SK-Mel-28: 5
[2]; SK-Mel-28, 6 hours
  percentage of Annexin-V positive cells: 8%
[2]; SK-Mel-28, 24 hours
  percentage of Annexin-V positive cells: 16%
[2]; SK-Mel-28, 48 hours
  percentage of Annexin-V positive cells: 70%
[3]; 6 hours
  percentage of Annexin-V positive cells: 8%
[3]; 24 hours
  percentage of Annexin-V positive cells: 89%
[3]; tested cell lines (Jurkat and SK-MEL 28), slower kinetics than SuperFasL
  induction of apoptosis: induces apoptosis

## COc1ccc2c(c1)CCN(C#N)C2c1cc(OC)c(OC)c(OC)c1 (single isomer, unassigned; (-)) [Example 33, (−)-1-(3,4,5-trimethoxyphenyl)-2-cyano-6-methoxy-1,2,3,4-tetrahydroisoquinoline]
[4]
  difference in phosphorylation of the insulin receptor versus untreated cells: No difference

## COc1ccc2c(c1)CCCN(C)C2c1cc(OC)c(OC)c(OC)c1.Cl (stereo not shown) [Example 31, 1-(3,4,5-trimethoxyphenyl)-2-methyl-7-methoxy-2,3,4,5-tetrahydro-1H-2-bezazepine hydrochloride]
[5]
  % phosphorylation of IGF-1R in SK-MEL-28 cells: 10%

## COC(=O)Nc1nc2ccc(C(=O)c3cccs3)cc2[nH]1 [Nocodazole, reference compound]
[1]; 10 μM
  mitotic index SK-Mel-28: 2.9
